# US20260184663A1, “INDENE COMPOUNDS, PHARMACEUTICAL COMPOSITIONS THEREOF, AND THEIR THERAPEUTIC APPLICATIONS” (NucMito Pharmaceuticals co. Ltd., priority 2022, published 2026)
# How the values were obtained:
# Format in all cases: cell-based
# [1] = test system: MDA-MB-231 (breast cancer); assay: Antiproliferative activity (CCK-8 cell viability), MDA-MB-231; conditions: Homo sapiens, 72 h, read-out: Antiproliferative activity in cancerous cells, MDA-MB-231 (inhibition of cell growth); for inhibition at 3.3 µM: Compound concentration: 3.3 μM; for inhibition at 10 µM: Compound concentration: 10 μM; for inhibition at 30 µM: Compound concentration: 30 μM
# Method in brief: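 Growth inhibition of human MDA-MB-231 breast cancer cells was assessed with a Cell Counting Kit-8. Cells cultured in DMEM plus 10% FBS were seeded at 2,000-5,000 cells/well, treated after attachment, and kept 72 h at 37° C. CCK-8 solution (10 μL) was added for 4 h, and absorbance at 450 nm was compared with DMSO-treated controls.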
# [2] = test system: SW480 (colon cancer); assay: Antiproliferative activity (CCK-8 cell viability), SW480; conditions: Homo sapiens, 72 h, read-out: Antiproliferative activity in cancerous cells, SW480 (inhibition of cell growth); for inhibition at 3.3 µM: Compound concentration: 3.3 μM; for inhibition at 10 µM: Compound concentration: 10 μM; for inhibition at 30 µM: Compound concentration: 30 μM
# Method in brief: (§1)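 Growth inhibition graded in bands from percent viability against DMSO vehicle, read as CCK-8 absorbance at 450 nm. Compound tested at 3.3, 10 or 30 μM for 72 h, 37 °C; media contained 10% FBS: DMEM for HepG2/SW480, MEM for HeLa, F-12K for A549.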
# [3] = test system: HepG2 (liver cancer); assay: Antiproliferative activity (CCK-8 cell viability), HepG2; conditions: Homo sapiens, 72 h, read-out: Antiproliferative activity in cancerous cells, HepG2 (inhibition of cell growth); for inhibition at 3.3 µM: Compound concentration: 3.3 μM; for inhibition at 10 µM: Compound concentration: 10 μM; for inhibition at 30 µM: Compound concentration: 30 μM
# Method in brief: as §1
# [4] = test system: B16F10 (malignant melanoma); assay: Antiproliferative activity (CCK-8 cell viability), B16F10; conditions: Mus musculus, 72 h, read-out: Antiproliferative activity in cancerous cells, B16F10 (inhibition of cell growth); for inhibition at 3.3 µM: B16-F10, Compound concentration: 3.3 μM; for inhibition at 10 µM: B16-F10, Compound concentration: 10 μM; for inhibition at 30 µM: B16-F10, Compound concentration: 30 μM
# Method in brief: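 Cell growth inhibition was measured in B16F10 malignant melanoma cells with a Cell Counting Kit-8 viability assay. Cells were maintained in DMEM plus 10% fetal bovine serum, seeded at 2,000-5,000 cells/well in 96-well plates, and treated for 72 h at 37° C. Viability was expressed relative to DMSO-treated vehicle control wells.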
# [5] = test system: A549 (lung adenocarcinoma); assay: Antiproliferative activity (CCK-8 cell viability), A549; conditions: Homo sapiens, 72 h, read-out: Antiproliferative activity in cancerous cells, A549 (inhibition of cell growth); for inhibition at 3.3 µM: Compound concentration: 3.3 μM; for inhibition at 10 µM: Compound concentration: 10 μM; for inhibition at 30 µM: Compound concentration: 30 μM
# Method in brief: as §1
# [6] = test system: A431 (epidermoid carcinoma); assay: Antiproliferative activity (CCK-8 cell viability), A431; conditions: Homo sapiens, 72 h, read-out: Antiproliferative activity in cancerous cells, A431 (inhibition of cell growth); for inhibition at 3.3 µM: A-431, Compound concentration: 3.3 μM; for inhibition at 10 µM: A-431, Compound concentration: 10 μM; for inhibition at 30 µM: A-431, Compound concentration: 30 μM
# Method in brief: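 This growth inhibition assay used A431 cells maintained in Dulbecco's modified Eagle's medium plus 10% fetal bovine serum. Cells were seeded in 96-well plates, treated with compound for 72 h at 37° C., and then given 10 μL CCK-8 solution. After a further 4 h, absorbance was read at 450 nm.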
# [7] = test system: HeLa (cervical cancer); assay: Antiproliferative activity (CCK-8 cell viability), HeLa; conditions: Homo sapiens, 72 h, read-out: Antiproliferative activity in cancerous cells, HELA (inhibition of cell growth); for inhibition at 3.3 µM: Compound concentration: 3.3 μM; for inhibition at 10 µM: Compound concentration: 10 μM; for inhibition at 30 µM: Compound concentration: 30 μM
# Method in brief: as §1
structure (smiles),measurement,setting,value
"CC1=C(CC(=O)O)c2cc(F)ccc2/C1=C\c1cccc(-c2ccc(C(F)(F)F)cc2)c1 [D1, (Z)-2-(5-Fluoro-2-methyl-1-((4′-(trifluoromethyl)-[1,1′-biphenyl]-3-yl)-methylene)-1H-inden-3-yl)acetic acid]",inhibition at 3.3 µM,[1],< 30%
same,inhibition at 10 µM,[1],≥ 50%
same,inhibition at 30 µM,[1],≥ 50%
same,inhibition at 3.3 µM,[2],< 30%
same,inhibition at 10 µM,[2],≥ 50%
same,inhibition at 30 µM,[2],≥ 50%
same,inhibition at 3.3 µM,[3],30 to 50%
same,inhibition at 10 µM,[3],≥ 50%
same,inhibition at 30 µM,[3],≥ 50%
same,inhibition at 3.3 µM,[4],< 30%
same,inhibition at 10 µM,[4],≥ 50%
same,inhibition at 30 µM,[4],≥ 50%
same,inhibition at 3.3 µM,[5],< 30%
same,inhibition at 10 µM,[5],≥ 50%
same,inhibition at 30 µM,[5],≥ 50%
same,inhibition at 3.3 µM,[6],30 to 50%
same,inhibition at 10 µM,[6],≥ 50%
same,inhibition at 30 µM,[6],≥ 50%
same,inhibition at 3.3 µM,[7],≥ 50%
same,inhibition at 10 µM,[7],≥ 50%
same,inhibition at 30 µM,[7],≥ 50%
"CC1=C(CC(=O)O)c2c(F)ccc(F)c2/C1=C\c1ccc(C(C)C)cc1 [D4, (Z)-2-(4,7-Difluoro-1-(4-isopropylbenzylidene)-2-methyl-1H-inden-3-yl)acetic acid]",inhibition at 3.3 µM,[1],30 to 50%
same,inhibition at 10 µM,[1],30 to 50%
same,inhibition at 30 µM,[1],≥ 50%
same,inhibition at 3.3 µM,[2],< 30%
same,inhibition at 10 µM,[2],< 30%
same,inhibition at 30 µM,[2],≥ 50%
same,inhibition at 3.3 µM,[3],< 30%
same,inhibition at 10 µM,[3],< 30%
same,inhibition at 30 µM,[3],≥ 50%
same,inhibition at 3.3 µM,[4],30 to 50%
same,inhibition at 10 µM,[4],≥ 50%
same,inhibition at 30 µM,[4],≥ 50%
same,inhibition at 3.3 µM,[5],< 30%
same,inhibition at 10 µM,[5],30 to 50%
same,inhibition at 30 µM,[5],≥ 50%
same,inhibition at 3.3 µM,[6],< 30%
same,inhibition at 10 µM,[6],< 30%
same,inhibition at 30 µM,[6],≥ 50%
same,inhibition at 3.3 µM,[7],≥ 50%
same,inhibition at 10 µM,[7],≥ 50%
same,inhibition at 30 µM,[7],≥ 50%
"CC1=C(CC(=O)O)c2c(F)cc(F)cc2/C1=C\c1ccc(C(F)(F)F)cc1 [D5, (Z)-2-(4,6-Difluoro-2-methyl-1-(4-(trifluoromethyl)benzylidene)-1H-inden-3-yl)-acetic acid]",inhibition at 3.3 µM,[1],< 30%
same,inhibition at 10 µM,[1],30 to 50%
same,inhibition at 30 µM,[1],≥ 50%
same,inhibition at 3.3 µM,[2],< 30%
same,inhibition at 10 µM,[2],< 30%
same,inhibition at 30 µM,[2],< 30%
same,inhibition at 3.3 µM,[3],< 30%
same,inhibition at 10 µM,[3],< 30%
same,inhibition at 30 µM,[3],30 to 50%
same,inhibition at 3.3 µM,[4],< 30%
same,inhibition at 10 µM,[4],≥ 50%
same,inhibition at 30 µM,[4],≥ 50%
same,inhibition at 3.3 µM,[5],30 to 50%
same,inhibition at 10 µM,[5],≥ 50%
same,inhibition at 30 µM,[5],≥ 50%
same,inhibition at 3.3 µM,[6],≥ 50%
same,inhibition at 10 µM,[6],≥ 50%
same,inhibition at 30 µM,[6],≥ 50%
same,inhibition at 3.3 µM,[7],< 30%
same,inhibition at 10 µM,[7],≥ 50%
same,inhibition at 30 µM,[7],≥ 50%
"CCOCc1ccc(/C=C2/C(C)=C(CC(=O)O)c3cc(F)ccc32)cc1 [D10, (Z)-2-(1-(4-(Ethoxymethyl)benzylidene)-5-fluoro-2-methyl-1H-inden-3-yl)acetic acid]",inhibition at 3.3 µM,[1],< 30%
same,inhibition at 10 µM,[1],< 30%
same,inhibition at 30 µM,[1],30 to 50%
same,inhibition at 3.3 µM,[2],30 to 50%
same,inhibition at 10 µM,[2],30 to 50%
same,inhibition at 30 µM,[2],30 to 50%
same,inhibition at 3.3 µM,[3],< 30%
same,inhibition at 10 µM,[3],< 30%
same,inhibition at 30 µM,[3],30 to 50%
same,inhibition at 3.3 µM,[4],30 to 50%
same,inhibition at 10 µM,[4],30 to 50%
same,inhibition at 30 µM,[4],30 to 50%
same,inhibition at 3.3 µM,[5],30 to 50%
same,inhibition at 10 µM,[5],30 to 50%
same,inhibition at 30 µM,[5],30 to 50%
same,inhibition at 3.3 µM,[6],≥ 50%
same,inhibition at 10 µM,[6],≥ 50%
same,inhibition at 30 µM,[6],≥ 50%
same,inhibition at 3.3 µM,[7],30 to 50%
same,inhibition at 10 µM,[7],≥ 50%
same,inhibition at 30 µM,[7],≥ 50%
